Values quoted from earlier work in patent US20240127967A1.

Tested on: MARV
Conditions: mouse, in vivo; cited from earlier work

CC(C)COCC(CN(Cc1ccccc1)c1ccccc1)N1CCCC1 (stereo not shown) [Bepridil]
protection of mice: strongly protected
